Reference: PMC13077286, “Potentiation of the antimycobacterial activity of bedaquiline, clofazimine, and doxycycline against Mycobacterium smegmatis by several natural product-based compounds is putatively via efflux inhibition” (Open Research Africa, 2026)
Counter-ions that a name gives are not always drawn. Like-named read-outs stand apart in the source and are kept apart here.

How the values were obtained:
[1] = system: Mycobacterium smegmatis (Msm) strain ATCC 607; experiment: Two-dimensional checkerboard assay incorporating resazurin (REMA MIC) against Msm; format: cell-based; conditions: for MIC 99 fold reduction of anti-TB drug BDQ: BDQ in combination with the labelled EI; for MIC 99 fold reduction of anti-TB drug DOX: DOX in combination with the labelled EI; for FICI: synergy FICI ≤ 0.5; for MIC99 / MIC: compound tested singly, read-out: MIC 99 singly; for MIC 99 fold reduction of anti-TB drug CFZ: CFZ in combination with the labelled EI
[2] = MTT cytotoxicity assay on Vero E6 cells; format: cell-based, African green monkey; conditions: African green monkey
Protocol: (§1) To determine the cytotoxicity of the compounds, Vero E6 cells (derived from the African green monkey kidney cells) were used and the MTT assay was performed as described by [Mosmann (1983)]. The Vero E6 cells were sourced from the American Type Culture Collection (ATCC, Manassas, Virginia, USA). The cells were maintained in Eagle’s Minimum Essential Medium (EMEM) supplemented with 10% fetal bovine serum (FBS; […] Panasonic, Japan) until 80% confluency was achieved, after which they were sub-cultured for cytotoxicity evaluation. At 80% confluency, cells were washed with phosphate-buffered saline (PBS; […] Trypsin activity was neutralized by adding supplemented EMEM. Cells were stained with trypan blue (Loba Chemie, India) and counted using a hemocytometer, and the cell suspensions were adjusted with supplemented EMEM to a final density of 1 × 10 ^5 cells/mL. […] After 24 hrs, the culture medium was replaced with fresh treatment medium with dose dilutions. […] After 48 hrs incubation, the media was removed, and the cells were rinsed with PBS (Sigma-Aldrich, USA). Fresh EMEM supplemented with MTT dye (5 mg […]/mL in PBS; Solarbio, China) was added and incubated for 4 hrs. The MTT solution was then discarded, and formazan crystals were completely dissolved with 100 μL of 100% DMSO (Finar Chemicals, India). Absorbance readings were taken at 570 nm using a microplate reader (Thermo Fisher Scientific, USA). All experiments were performed with three technical replicates. Cell viability (%) was determined using the formula: Cell viability(%)=[Absorbance of treated cells/Absorbance of untreated cells]×100 […]

[3] = system: Vero E6 cells; experiment: MTT cytotoxicity assay on Vero E6 cells; format: cell-based, African green monkey
Protocol: as §1

[4] = Msm, labelled EI in combination with BDQ
[5] = Msm, labelled EI in combination with CFZ
[6] = Msm, labelled EI in combination with DOX
[7] = Mycolicibacterium smegmatis, ATCC607, Msm
[8] = Vero E6 cells, 48 hrs exposure, MTT, read-out: CC 50

Structure (SMILES)	MIC 99 fold reduction of anti-TB drug BDQ ([1]; Msm)	MIC 99 fold reduction of anti-TB drug DOX ([1]; Msm)	FIC (EI) ([1]; Msm, in combination with BDQ)	MIC 99 combination (EI) ([1]; Msm, in combination with BDQ)	FIC (EI) ([1]; Msm, in combination with CFZ)	MIC 99 combination (EI) ([1]; Msm, in combination with CFZ)	FIC (EI) ([1]; Msm, in combination with DOX)	MIC 99 combination (EI) ([1]; Msm, in combination with DOX)	FICI [1, 4]	FICI [1, 5]	FICI [1, 6]	MIC99 [1, 7]	CC50 at 48 h [2, 8]	FIC (anti-TB drug) ([1]; Msm, in combination with BER)	MIC 99 combination (anti-TB drug) ([1]; Msm, in combination with BER)	MIC 99 combination (anti-TB drug) ([1]; Msm, in combination with LYO)	FIC (anti-TB drug) ([1]; Msm, in combination with LYO-3)	MIC 99 combination (anti-TB drug) ([1]; Msm, in combination with LYO-3)	FIC (anti-TB drug) ([1]; Msm, in combination with PIP)	MIC 99 combination (anti-TB drug) ([1]; Msm, in combination with PIP)	other results
COc1cc(C2c3c(cc(OC)c(O)c3OC)CC(CO)C2CO)cc(OC)c1O (centres unmarked) [LYO, lyoniresinol]	8 fold	16 fold	0.125	25 µM	1	200 µM	0.125	25 µM	0.18	2	0.19	200 µM	318 µM	–	–	–	–	–	–	–	–
O=C(/C=C/C=C/c1ccc2c(c1)OCO2)N1CCCCC1 [PIP, piperine]	–	16 fold	1	119.99 µM	0.25	29.99 µM	0.25	29.99 µM	2	0.37	–	120 µM	92.5 µM	–	–	–	–	–	–	–	MIC 99 fold reduction of anti-TB drug CFZ ([1]; Msm): 8 fold
COc1nc2ccc(Br)cc2cc1[C@@H](c1ccccc1)[C@@](O)(CCN(C)C)c1cccc2ccccc12 [BDQ, bedaquiline fumarate]	–	–	–	–	–	–	–	–	–	–	–	0.78 µM	–	0.102	0.04 µM	0.09 µM	0.05	0.04 µM	1	0.78 µM	MIC ([1]; Msm): 0.39 µM; FIC (anti-TB drug) ([1]; Msm, in combination with RES): 0.5; MIC 99 combination (anti-TB drug) ([1]; Msm, in combination with RES): 0.39 µM
C[C@H]1c2cccc(O)c2C(=O)C2=C(O)[C@]3(O)C(=O)C(C(N)=O)=C(O)[C@@H](N(C)C)[C@@H]3[C@@H](O)[C@@H]21 [DOX, doxycycline hyclate]	–	–	–	–	–	–	–	–	–	–	–	36 µM	–	0.063	2.25 µM	2.25 µM	0.063	2.25 µM	0.063	2.25 µM	FIC (anti-TB drug) ([1]; Msm, in combination with LYO): 0.063; FIC (anti-TB drug) ([1]; Msm, in combination with RES): 0.031; MIC 99 combination (anti-TB drug) ([1]; Msm, in combination with RES): 1.12 µM
COC(=O)[C@H]1[C@H]2C[C@@H]3c4[nH]c5cc(OC)ccc5c4CCN3C[C@H]2C[C@@H](OC(=O)c2cc(OC)c(OC)c(OC)c2)[C@@H]1OC [RES, reserpine]	2 fold	32 fold	–	>2239.3 µM	–	>2239.3 µM	–	–	–	–	–	> 2240 µM	–	–	–	–	–	–	–	–	MIC 99 fold reduction of anti-TB drug CFZ ([1]; Msm): 4 fold; MIC [1, 7]: > 2240 µM; Cytotoxicity (in words) [3]: strong cytotoxicity at low micromolar concentrations
COc1ccc2cc3[n+](cc2c1OC)CCc1cc2c(cc1-3)OCO2 [BER, Berberine chloride]	10 fold	16 fold	0.125	27.62 µM	–	53.99 µM	–	53.99 µM	0.23	2	0.31	110 µM	–	–	–	–	–	–	–	–	MIC [1, 7]: 221 µM; CC50 at 48 h [2]: 362 µM
COc1cc([C@H]2c3c(cc(OC)c(O)c3OC)C[C@@H](CO)[C@@H]2CO[C@@H]2O[C@H](CO)[C@@H](O)[C@H](O)[C@H]2O)cc(OC)c1O [LYO-3, (+)-lyoniresinol-3-Alpha-O-Beta-D-glucopyranoside]	20 fold	16 fold	0.25	24.99 µM	1	99.99 µM	0.25	25 µM	0.3	2	0.21	100 µM	604 µM	–	–	–	–	–	–	–	viability at 48 h ([2]; Vero E6 cells, even at higher concentrations, read-out: Cell viability): > 50%
CC(C)/N=c1\cc2n(-c3ccc(Cl)cc3)c3ccccc3nc-2cc1Nc1ccc(Cl)cc1 [CFZ, clofazimine]	–	–	–	–	–	–	–	–	–	–	–	0.08 µM	–	1	0.08 µM	0.08 µM	1	0.08 µM	0.12	0.01 µM	FIC (anti-TB drug) ([1]; Msm, in combination with LYO): 1; FIC (anti-TB drug) ([1]; Msm, in combination with RES): 0.25; MIC 99 combination (anti-TB drug) ([1]; Msm, in combination with RES): 0.02 µM
